Earlier results in paper PMC2505184 (Bioconjugate chemistry, 2008).

## O=C([O-])CN1CCCN(CC(=O)[O-])CCN(CC(=O)[O-])CCCN(CC(=O)[O-])CC1.[64Cu+2] [^64Cu-TETA]
  in vitro serum stability: high in vitro serum stability
